Results as given in ChEMBL document CHEMBL1149990, “1-(2-METHOXYPHENYL)-4-ALKYLPIPERAZINES: EFFECT OF THE N-4 SUBSTITUENT ON THE AFFINITY AND SELECTIVITY FOR DOPAMINE D4 RECEPTOR” (Bioorg Med Chem Lett, 1997).

Columns and labels:
[1] = target: T1, Adrenergic receptor alpha-1 (Rattus norvegicus, UniProt P15823+P23944+P43140); assay: Displacement of [3H]prazosin from Alpha-1 adrenergic receptor of rat cerebral cortex; type: tissue-based
T1 sequence (P15823 whole entry): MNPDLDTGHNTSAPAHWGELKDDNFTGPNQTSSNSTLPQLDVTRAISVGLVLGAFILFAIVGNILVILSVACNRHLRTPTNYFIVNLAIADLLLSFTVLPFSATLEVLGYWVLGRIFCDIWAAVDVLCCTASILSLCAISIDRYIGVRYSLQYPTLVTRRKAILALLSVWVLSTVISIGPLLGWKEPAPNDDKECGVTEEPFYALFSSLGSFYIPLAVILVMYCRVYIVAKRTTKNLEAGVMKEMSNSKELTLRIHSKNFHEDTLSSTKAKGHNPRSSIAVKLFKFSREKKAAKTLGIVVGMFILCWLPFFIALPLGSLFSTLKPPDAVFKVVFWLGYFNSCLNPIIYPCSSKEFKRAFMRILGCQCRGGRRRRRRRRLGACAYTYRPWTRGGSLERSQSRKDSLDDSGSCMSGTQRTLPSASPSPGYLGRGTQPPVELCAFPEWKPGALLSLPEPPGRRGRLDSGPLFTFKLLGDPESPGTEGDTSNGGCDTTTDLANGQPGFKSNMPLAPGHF
T1 sequence (P23944 whole entry): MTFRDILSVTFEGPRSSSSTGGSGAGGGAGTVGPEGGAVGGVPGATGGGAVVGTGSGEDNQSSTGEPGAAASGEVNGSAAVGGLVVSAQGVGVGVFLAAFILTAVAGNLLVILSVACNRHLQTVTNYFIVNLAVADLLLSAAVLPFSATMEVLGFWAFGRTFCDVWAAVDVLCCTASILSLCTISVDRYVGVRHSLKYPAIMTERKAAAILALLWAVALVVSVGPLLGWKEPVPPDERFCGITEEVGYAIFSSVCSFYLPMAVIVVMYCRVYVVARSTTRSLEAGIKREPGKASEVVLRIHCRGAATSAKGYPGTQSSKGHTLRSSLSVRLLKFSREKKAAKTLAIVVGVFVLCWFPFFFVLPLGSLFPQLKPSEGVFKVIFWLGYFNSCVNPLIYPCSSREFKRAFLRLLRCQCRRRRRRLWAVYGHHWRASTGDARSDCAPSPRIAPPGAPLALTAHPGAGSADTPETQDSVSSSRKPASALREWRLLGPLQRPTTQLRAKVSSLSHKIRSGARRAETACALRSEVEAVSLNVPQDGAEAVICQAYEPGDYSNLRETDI
T1 sequence (P43140 whole entry): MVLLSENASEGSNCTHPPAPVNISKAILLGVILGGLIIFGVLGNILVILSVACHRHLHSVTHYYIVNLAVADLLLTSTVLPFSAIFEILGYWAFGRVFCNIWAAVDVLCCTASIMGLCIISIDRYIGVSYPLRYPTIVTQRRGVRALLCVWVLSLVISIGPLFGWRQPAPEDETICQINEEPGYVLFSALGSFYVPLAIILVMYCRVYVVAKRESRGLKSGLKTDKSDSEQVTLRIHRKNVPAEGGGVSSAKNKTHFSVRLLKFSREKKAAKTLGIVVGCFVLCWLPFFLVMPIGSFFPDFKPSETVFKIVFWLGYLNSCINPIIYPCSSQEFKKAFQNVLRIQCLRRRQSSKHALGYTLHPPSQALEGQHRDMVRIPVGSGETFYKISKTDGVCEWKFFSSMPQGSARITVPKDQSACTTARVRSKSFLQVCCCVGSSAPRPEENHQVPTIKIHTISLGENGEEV

[2] = target: T2, D(4) dopamine receptor (Homo sapiens, UniProt P21917); assay: Displacement of [3H]YM-09151-2 from human Dopamine receptor D4.2 expressed in baculovirus Sf9 cells
T2 sequence (P21917 whole entry): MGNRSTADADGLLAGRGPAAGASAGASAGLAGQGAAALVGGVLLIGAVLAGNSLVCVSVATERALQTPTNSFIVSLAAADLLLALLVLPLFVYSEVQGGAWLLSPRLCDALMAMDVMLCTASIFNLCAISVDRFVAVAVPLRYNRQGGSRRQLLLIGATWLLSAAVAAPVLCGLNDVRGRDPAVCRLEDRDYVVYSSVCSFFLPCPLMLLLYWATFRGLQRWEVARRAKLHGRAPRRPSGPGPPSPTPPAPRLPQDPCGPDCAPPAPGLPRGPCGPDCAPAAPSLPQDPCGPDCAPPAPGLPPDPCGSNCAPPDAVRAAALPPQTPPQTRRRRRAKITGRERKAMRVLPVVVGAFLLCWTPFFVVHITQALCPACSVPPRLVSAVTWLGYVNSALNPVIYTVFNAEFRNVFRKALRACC

Compound: COc1ccccc1N1CCN(CCCCC2CCCc3c(OC)cccc32)CC1 (stereo not given)
- Ki [1]: 65 nM
- Ki [2]: 43 nM

Compound: COc1ccccc1N1CCN(CCCNC(=O)C2CCCc3cccc(OC)c32)CC1 (stereo not given)
- Ki [1]: 70 nM
- Ki [2]: 49 nM

Compound: COc1ccccc1N1CCN(Cc2cccc(-c3ccccc3)c2)CC1
- Ki [2]: 8 nM

Compound: COc1ccccc1N1CCN(CCNC(=O)C2CCCc3c(OC)cccc32)CC1 (stereo not given)
- Ki [2]: 22 nM

Compound: COc1cccc(C(=O)CCCCN2CCN(c3ccccc3OC)CC2)c1
- Ki [1]: 41 nM
- Ki [2]: 43 nM

Compound: COc1cc(N)c(Cl)cc1C(=O)NCCN1CCN(c2ccccc2OC)CC1
- Ki [1]: 8 nM
- Ki [2]: 19 nM

Compound: COc1ccccc1N1CCN(CCCC2CCCc3c(OC)cccc32)CC1 (stereo not given)
- Ki [1]: 1 nM

Compound: COc1cccc(C(=O)CCCN2CCN(c3ccccc3OC)CC2)c1
- Ki [1]: 19 nM
- Ki [2]: 1.7 nM

Compound: COc1ccccc1N1CCN(CCC(=O)NC2CCCc3c(OC)cccc32)CC1 (stereo not given)
- Ki [1]: 125 nM
- Ki [2]: 67 nM
